Assay results taken from ChEMBL document CHEMBL3039007, “Structure-based identification of OATP1B1/3 inhibitors” (Mol Pharmacol, 2013).

Columns and labels:
[1] = target: T1, Solute carrier organic anion transporter family member 1B1 (Homo sapiens, UniProt Q9Y6L6); conditions: chinese hamster, cho, 10 µM
T1 sequence (Q9Y6L6 whole entry): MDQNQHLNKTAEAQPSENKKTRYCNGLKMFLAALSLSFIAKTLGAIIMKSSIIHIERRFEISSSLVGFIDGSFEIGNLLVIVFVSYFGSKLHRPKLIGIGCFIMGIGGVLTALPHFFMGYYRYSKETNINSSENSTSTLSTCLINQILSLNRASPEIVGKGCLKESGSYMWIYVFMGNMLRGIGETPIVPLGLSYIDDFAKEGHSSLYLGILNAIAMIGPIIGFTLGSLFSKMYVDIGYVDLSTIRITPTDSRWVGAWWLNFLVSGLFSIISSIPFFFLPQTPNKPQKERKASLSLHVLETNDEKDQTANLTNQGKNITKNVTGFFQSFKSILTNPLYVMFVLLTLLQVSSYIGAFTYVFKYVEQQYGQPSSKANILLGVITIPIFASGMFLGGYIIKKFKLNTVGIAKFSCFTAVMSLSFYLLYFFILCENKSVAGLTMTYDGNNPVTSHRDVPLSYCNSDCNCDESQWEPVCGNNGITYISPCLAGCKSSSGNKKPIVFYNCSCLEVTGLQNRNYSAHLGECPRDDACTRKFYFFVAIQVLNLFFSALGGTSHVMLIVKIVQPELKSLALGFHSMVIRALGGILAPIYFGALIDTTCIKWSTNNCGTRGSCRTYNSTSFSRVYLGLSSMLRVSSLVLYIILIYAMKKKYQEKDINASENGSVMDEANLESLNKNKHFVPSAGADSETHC

[2] = target: T2, Solute carrier organic anion transporter family member 1B3 (Homo sapiens, UniProt Q9NPD5); conditions: chinese hamster, cho, 10 µM
T2 sequence (Q9NPD5 whole entry): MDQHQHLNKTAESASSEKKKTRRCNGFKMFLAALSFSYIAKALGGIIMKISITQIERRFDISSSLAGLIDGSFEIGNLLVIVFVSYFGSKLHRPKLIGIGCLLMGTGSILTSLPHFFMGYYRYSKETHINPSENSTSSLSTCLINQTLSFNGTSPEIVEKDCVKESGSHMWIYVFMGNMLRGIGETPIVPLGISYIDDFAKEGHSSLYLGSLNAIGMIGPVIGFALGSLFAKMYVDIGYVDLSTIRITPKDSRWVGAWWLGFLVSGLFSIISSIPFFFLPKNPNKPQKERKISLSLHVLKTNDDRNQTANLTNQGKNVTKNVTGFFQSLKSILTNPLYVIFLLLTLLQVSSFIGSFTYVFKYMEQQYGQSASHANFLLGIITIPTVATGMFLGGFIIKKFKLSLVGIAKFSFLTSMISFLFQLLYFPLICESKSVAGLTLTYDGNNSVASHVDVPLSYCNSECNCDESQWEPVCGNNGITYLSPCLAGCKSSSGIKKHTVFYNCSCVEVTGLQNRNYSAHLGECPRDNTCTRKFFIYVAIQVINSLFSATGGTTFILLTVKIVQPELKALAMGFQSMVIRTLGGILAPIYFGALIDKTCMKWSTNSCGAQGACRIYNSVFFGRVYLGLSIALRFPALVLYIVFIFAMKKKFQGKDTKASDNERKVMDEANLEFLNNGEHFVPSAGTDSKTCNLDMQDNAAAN

Row | Structure (SMILES) | residual activity [1] | residual activity [2]
1 | CN[C@@H](C)[C@@H](O)c1ccccc1.Cl [PSEUDOEPHEDRINE HYDROCHLORIDE] | 86.1% | 102.7%
2 | CC1=CCc2c(cc3oc(C)cc(=O)c3c2O)OC1 [PTAEROXYLIN] | 104.1% | 109.4%
3 | Nc1nc2ncc(C(=O)O)nc2c(=O)[nH]1 [PTERIN-6-CARBOXYLIC ACID] | 102.1% | 99.97%
4 | C/C=C(/C)C(=O)O[C@@H]1c2c(ccc3ccc(=O)oc23)OC(C)(C)[C@@H]1OC(C)=O [PTERYXIN] | 84.8% | 114.3%
5 | COc1ccc(C[C@H](N)C(=O)N[C@H]2[C@@H](O)[C@H](n3cnc4c(N(C)C)ncnc43)O[C@@H]2CO)cc1.Cl.Cl [PUROMYCIN HYDROCHLORIDE] | 95.86% | 116.6%
6 | O=C1c2ccccc2C(=O)c2c(O)c(O)cc(O)c21 [PURPURIN] | 100.1% | 98.68%
7 | O=c1c(O)cccc2cc(O)c(O)c(O)c12 [PURPUROGALLIN] | 65.05% | 82.24%
8 | Cl.Cl.NCCCCN [PUTRESCINE DIHYDROCHLORIDE] | 110.3% | 106.7%
9 | CN1CCCN=C1/C=C/c1cccs1.O=C(O)c1cc2ccccc2c(Cc2c(O)c(C(=O)O)cc3ccccc23)c1O [PYRANTEL PAMOATE] | 31.41% | 34.84%
10 | NC(=O)c1cnccn1 [PYRAZINAMIDE] | 79.24% | 116.6%
11 | CN(C)C(=O)Oc1ccc[n+](C)c1.[Br-] [PYRIDOSTIGMINE BROMIDE] | 96.49% | 112%
12 | COc1ccc(CN(CCN(C)C)c2ccccn2)cc1.O=C(O)/C=C\C(=O)O [PYRILAMINE MALEATE] | 68.75% | 101.4%
13 | CCc1nc(N)nc(N)c1-c1ccc(Cl)cc1 [PYRIMETHAMINE] | 72.59% | 107.4%
14 | [O-][n+]1ccccc1[S][Zn][S]c1cccc[n+]1[O-] [PYRITHIONE ZINC] | 92.52% | 94.54%
15 | CCC1(CC)C(=O)C=CNC1=O [PYRITHYLDIONE] | 106.5% | 101.3%
16 | CC[C@@]1(O)C[C@H](O[C@H]2C[C@H](N(C)C)[C@H](O)[C@H](C)O2)c2c(cc3c(c2O)C(=O)c2c(O)ccc(O)c2C3=O)[C@H]1C(=O)OC [PYRROMYCIN] | 90.45% | 81.89%
17 | Cc1cc(/C=C/c2ccc3cc(N(C)C)ccc3[n+]2C)c(C)n1-c1ccccc1.Cc1cc(/C=C/c2ccc3cc(N(C)C)ccc3[n+]2C)c(C)n1-c1ccccc1.O=C([O-])c1cc2ccccc2c(Cc2c(O)c(C(=O)[O-])cc3ccccc23)c1O [PYRVINIUM PAMOATE] | 42.61% | 32.66%
18 | CO[C@H]1[C@H](O)[C@@H](O)[C@H](O)[C@H](O)[C@H]1O [QUEBRACHITOL] | 101.4% | 106.9%
19 | O=c1c(O)c(-c2ccc(O)c(O)c2)oc2cc(O)cc(O)c12 [QUERCETIN] | 47.09% | 122.6%
20 | C[C@@H]1O[C@@H](Oc2c(-c3ccc(O)c(O)c3)oc3cc(O)cc(O)c3c2=O)[C@H](O)[C@H](O)[C@H]1O [QUERCITRIN] | 107.2% | 114.6%
21 | CCN(CC)CCCC(C)Nc1c2ccc(Cl)cc2nc2ccc(OC)cc12.Cl.Cl.O.O (configuration not stated) [QUINACRINE HYDROCHLORIDE] | 83.49% | 95.69%
22 | O=C1c2ccc(O)c(O)c2C(=O)c2c(O)ccc(O)c21 [QUINALIZARIN] | 57.07% | 75.87%
23 | CCOC(=O)[C@H](CCc1ccccc1)N[C@@H](C)C(=O)N1Cc2ccccc2C[C@H]1C(=O)O.Cl [QUINAPRIL HYDROCHLORIDE] | 109.5% | 98.34%

Row | Structure (SMILES) | residual activity [1] | residual activity [2]
24 | O=C(O)[C@]1(O)C[C@@H](O)[C@@H](O)[C@H](O)C1 [QUINIC ACID] | 95.08% | 98.01%
25 | C=C[C@H]1CN2CC[C@H]1C[C@@H]2[C@@H](O)c1ccnc2ccc(OC)cc12.O=C(O)[C@H](O)[C@@H](O)[C@H](O)[C@H](O)CO [QUINIDINE GLUCONATE] | 103.2% | 122%
26 | C=C[C@H]1CN2CC[C@H]1C[C@H]2[C@H](OC(=O)OCC)c1ccnc2ccc(OC)cc12 [QUININE ETHYLCARBONATE] | 58.74% | 64.19%
27 | C=C[C@H]1CN2CC[C@H]1C[C@H]2[C@H](O)c1ccnc2ccc(OC)cc12.C=C[C@H]1CN2CC[C@H]1C[C@H]2[C@H](O)c1ccnc2ccc(OC)cc12.O.O.O=S(=O)(O)O [QUININE SULFATE] | 92.08% | 99.87%
28 | O=C(O)c1cccnc1C(=O)O [QUINOLINIC ACID] | 103.9% | 104.2%
29 | O=C(O)/C=C\C(=O)O.c1ccc2nc(N3CCNCC3)ccc2c1 [QUIPAZINE MALEATE] | 102.6% | 102.9%
30 | CNC(C)C(O)c1ccccc1.Cl (configuration not stated) [RACEPHEDRINE HYDROCHLORIDE] | 70.72% | 103.1%
31 | CCC(=O)NCC[C@@H]1CCc2ccc3c(c21)CCO3 [RAMELTEON] | 127.6% | 113.4%
32 | Cc1c(NC(C)C)c(=O)n(-c2ccccc2)n1C [RAMIFENAZONE] | 105.5% | 89.79%
33 | COc1ccccc1OCC(O)CN1CCN(CC(=O)Nc2c(C)cccc2C)CC1 (configuration not stated) [RANOLAZINE] | 70.75% | 83.1%
34 | O=C(NC(Cc1cc(=O)[nH]c2ccccc12)C(=O)O)c1ccc(Cl)cc1 (configuration not stated) [REBAMIPIDE] | 97.98% | 109.2%
35 | CC(=O)Oc1cccc(O)c1 [RESORCINOL MONOACETATE] | 102.7% | 68.79%
36 | Oc1cccc(O)c1 [RESORCINOL] | 89.71% | 104.2%
37 | Oc1ccc(/C=C/c2cc(O)cc(O)c2)cc1 [RESVERATROL] | 157.6% | 116.7%
38 | CC1=C(/C=C/C(C)=C/C=C/C(C)=C/CO)C(C)(C)CCC1 [RETINOL] | 18.99% | 31.96%
39 | COc1ccc(-c2coc3c(O)c(OC)ccc3c2=O)cc1 [RETUSIN 7-METHYL ETHER] | 126.8% | 107.3%
40 | C=C(C)/C=C1/C=CC(=O)C(C)=C1 [RETUSOQUINONE] | 96.97% | 92.24%
41 | COc1cc(O)c2c(=O)c(O)c(-c3ccc(O)c(O)c3)oc2c1 [RHAMNETIN] | 90.81% | 99.02%
42 | COc1ccc(/C=C/c2cc(O)cc(O[C@@H]3O[C@H](CO)[C@@H](O)[C@H](O)[C@H]3O)c2)cc1O [RHAPONTIN] | 166.2% | 100.6%
43 | CNc1ccccc1C(=O)N1CCc2c([nH]c3ccccc23)C1=O [RHETSININE] | 102% | 98.18%
44 | COC1=C(O)C(=O)c2c(cc3oc(C(C)=O)c(O)c3c2O)C1=O [RHODOCLADONIC ACID] | 93.89% | 96.54%
45 | CCC(C)C(=O)c1c(O)c(C)c2oc3c(C)c(O)c(C(=O)C(C)CC)c(O)c3c2c1O (configuration not stated) [RHODOMYRTOXIN B] | 8.078% | 37.47%
46 | Cc1c(O)c(C(=O)CC(C)C)c2oc3c(C(=O)CC(C)C)c(O)c(C)c(O)c3c2c1O [RHODOMYRTOXIN] | 31.12% | 66.23%
